The record followed here is patent US8354430B2, “Monohydrochloride salt of 1-[3-[3-(4-chlorophenyl) propoxy]propyl]-piperidine” (priority 2005, dated 2013).

Series [1] in a line: Stability to oxidation conditions (melting points under nitrogen and oxygen atmosphere). Type of series: physicochemical. On the procedure:
Melting points of the above salts were also determined under nitrogen and oxygen atmosphere, in order to verify their stability to oxidation conditions.

Series [2] is described as follows: physchem.
Series [3] can be described thus: Aqueous solubility at 23° C. Type of series: physicochemical. As to conditions: water. From the text: The use of 1-[3-[3-(4-chlorophenyl)propoxy]propyl]-piperidine as the free base is limited because of its oily nature.
The nature of series [4]: Solubility of salts in water at room temperature, pH 4.5 and pH 7.4.
Series [5] has as its system mice. Kind of series: Natural forgetting, two-trial object recognition. Type of series: in vivo, mouse. As to conditions: tacrine 0.25 mg/kg, i.p. after T1. On the procedure: Methods: Mice were submitted to the first trial (T1), placed in the box containing two identical objects and the time required by each animal to complete 8 sec of object exploration was determined. Exploration was considered to be directing the nose at a distance closer than 2 cm to the object and/or touching the object. Immediately after the first trial mice were treated with the vehicle or tacrine (0.25 mg/kg, i.p.). […] Mice were placed in the box for 5 min and exploration of each object together with motor activity was determined. The following parameters were measured: […]

One may read the solubility as how much of the substance goes into solution per volume. A low value points to a poorly soluble substance. On to `Clc1ccc(CCCOCCCN2CCCCC2)cc1.O=C(O)C(=O)O` [Hydrogen oxalate, 1-[3-[3-(4-chlorophenyl)propoxy]propyl]-piperidine oxalate, reference compound], for which the “Melting point, N2 atmosphere (stability to oxidation conditions)” value (shortened to “Melting point, N2 atmosphere”) in series [1] turned out to be 149.16 °C. Besides, the “Melting point, O2 atmosphere (stability to oxidation conditions)” value (from here on “Melting point, O2 atmosphere”) in series [1] is 149.28 °C. Moreover, the solubility in series [2] (pH 4.5, aqueous buffer) was 10 to 30 mg/mL; in series [2] (pH 7.4, aqueous buffer), 30 to 100 mg/mL; in series [2] (water), 10 to 30 mg/mL; in series [3], 25 mg/mL.

For `Clc1ccc(CCCOCCCN2CCCCC2)cc1` [Hydrogen succinate], in series [1], the “Melting point, N2 atmosphere” value was determined as 63.21 °C and the “Melting point, O2 atmosphere” value came to 63.46 °C. The “Solubility (% w/v) pH 4.5” value in series [4] (pH 4.5) was above 100 % w/v. In addition, in series [4] (pH 7.4), the “Solubility (% w/v) pH 7.4” value is above 100 % w/v. Also, the “Solubility (% w/v) Water room T” value in series [4] (water at room temperature) is recorded as above 100 % w/v.

Take `Nc1c2c(nc3ccccc13)CCCC2` [tacrine, reference compound]: the natural forgetting result in series [5] is “significantly reduced”.

Regarding Hydrogen maleate, in series [1], the “Melting point, N2 atmosphere” value was 90.85 °C and the “Melting point, O2 atmosphere” value amounted to 90.74 °C.
